Test results: patent publication US20230085307A1, “PYRIDAZINONE COMPOUND AND HERBICIDE” (NISSAN CHEMICAL CORPORATION, priority 2019, published 2023)

Experiments:
[1] = test system: chickweed; assay: Test Example 4: herbicidal effect by soil treatment (Table 19, symbol P); assay type: in vivo, common chickweed (Stellaria media)
In short: (§1)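 In this soil treatment, the formulated compound reached the seeds only through the soil: seeds were buried about 1.5 cm deep in sterilized diluvial soil, then the diluted emulsion was sprayed over the surface. After three weeks at 25° C. to 30° C. in a greenhouse, effects were graded on criteria from an earlier test.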

[2] = test system: velvetleaf; assay: Test Example 4: herbicidal effect by soil treatment (Table 19, symbol M); assay type: in vivo, velvetleaf (Abutilon theophrasti)
In short: as §1

[3] = test system: oval-leafed pondweed; assay: Test Example 2: herbicidal activity, application during weed generation under submerged conditions (Table 17, symbol C); assay type: in vivo, oval-leafed pondweed (Monochoria vaginalis); conditions: application during weed generation, submerged conditions
In short: (§2)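 Mixed weed seedlings in alluvial soil under a 4 cm water layer, greenhouse-grown at 25–30° C. Compound given as a diluted emulsion into the floodwater at the 1–2 leaf stage; response graded after three weeks.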

[4] = test system: wild oat; assay: Test Example 4: herbicidal effect by soil treatment (Table 19, symbol I); assay type: in vivo, wild oat (Avena fatua)
In short: as §1

[5] = test system: rice flat sedge; assay: Test Example 3: herbicidal effect by foliage application, Wagner pot (Table 18, symbol E); assay type: in vivo, rice flat sedge (Cyperus iria)
In short: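 Plants were sown in alluvial soil held under 0.1–0.5 cm standing water and grown 14 days in a greenhouse at 25–30 °C. An emulsifiable formulation, water-diluted to the set dose, was then sprayed onto the foliage, and effects were scored three weeks later using previously defined criteria.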

[6] = test system: barnyard grass; assay: Test Example 5: herbicidal effect by foliage application, plastic box (Table 20, symbol H); assay type: in vivo, barnyard grass (Echinochloa crus-galli); conditions: foliage application, three weeks after application
In short: (§3)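 Plants were sown into sterilized diluvial soil under about 1.5 cm cover and kept in a greenhouse at 25° C. to 30° C. Fourteen days on, foliage received an even spray of the diluted emulsion. Herbicidal or crop effect was judged three weeks afterwards.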

[7] = test system: blackgrass; assay: Test Example 4: herbicidal effect by soil treatment (Table 19, symbol J); assay type: in vivo, blackgrass (Alopecurus myosuroides)
In short: as §1

[8] = test system: southern crabgrass; assay: Test Example 4: herbicidal effect by soil treatment (Table 19, symbol F); assay type: in vivo, southern crabgrass (Digitaria ciliaris)
In short: as §1

[9] = test system: late watergrass; assay: Test Example 2: herbicidal activity, application during weed generation under submerged conditions (Table 17, symbol A); assay type: in vivo, late watergrass (Echinochloa oryzicola); conditions: application during weed generation, submerged conditions
In short: as §2

[10] = test system: blackgrass; assay: Test Example 5: herbicidal effect by foliage application, plastic box (Table 20, symbol J); assay type: in vivo, blackgrass (Alopecurus myosuroides); conditions: foliage application, three weeks after application
In short: as §3

[11] = test system: redroot pigweed; assay: Test Example 5: herbicidal effect by foliage application, plastic box (Table 20, symbol N); assay type: in vivo, redroot pigweed (Amaranthus retroflexus); conditions: foliage application, three weeks after application
In short: as §3

[12] = test system: wild oat; assay: Test Example 5: herbicidal effect by foliage application, plastic box (Table 20, symbol I); assay type: in vivo, wild oat (Avena fatua); conditions: foliage application, three weeks after application
In short: as §3

[13] = test system: green foxtail; assay: Test Example 4: herbicidal effect by soil treatment (Table 19, symbol G); assay type: in vivo, green foxtail (Setaria viridis)
In short: as §1

[14] = test system: chickweed; assay: Test Example 5: herbicidal effect by foliage application, plastic box (Table 20, symbol P); assay type: in vivo, common chickweed (Stellaria media); conditions: foliage application, three weeks after application
In short: as §3

[15] = test system: redroot pigweed; assay: Test Example 4: herbicidal effect by soil treatment (Table 19, symbol N); assay type: in vivo, redroot pigweed (Amaranthus retroflexus)
In short: as §1

[16] = test system: Japanese bulrush; assay: Test Example 2: herbicidal activity, application during weed generation under submerged conditions (Table 17, symbol B); assay type: in vivo, Japanese bulrush (Schoenoplectus juncoides); conditions: application during weed generation, submerged conditions
In short: as §2

[17] = test system: Japanese bulrush; assay: Test Example 1: herbicidal activity, application before weed generation under submerged conditions (Table 16, symbol B); assay type: in vivo, Japanese bulrush (Schoenoplectus juncoides)
In short: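 Submerged Wagner pots (alluvial soil, 4 cm water) sown with weed seeds and planted with 2.5-leaf rice seedlings; emulsifiable concentrate diluted in water applied to water surface on sowing day. Held in greenhouse at 25-30 °C; injury scored 0-5 by herbicidal rate after three weeks.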

[18] = amount of applied herbicide 224 g/ha
[19] = amount of applied herbicide 304 g/ha
[20] = amount of applied herbicide 320 g/ha

Structure (SMILES)	P: chickweed, herbicidal effect grade [1, 20]	M: velvetleaf, herbicidal effect grade [2, 20]	herbicidal effect rating, C: oval-leafed pondweed ([3]; AAH 320 g/ha)	I: wild oat, herbicidal effect grade [4, 20]	herbicidal effect on rice flat sedge (E) ([5]; 320 g/ha)	H: barnyard grass, herbicidal effect grade ([6]; 320 g/ha)	J: blackgrass, herbicidal effect grade [7, 20]	F: southern crabgrass, herbicidal effect grade [8, 20]	herbicidal effect rating, A: late watergrass ([9]; AAH 320 g/ha)	J: blackgrass, herbicidal effect grade ([10]; 320 g/ha)	N: redroot pigweed, herbicidal effect grade ([11]; 320 g/ha)	I: wild oat, herbicidal effect grade ([12]; 320 g/ha)	G: green foxtail, herbicidal effect grade [13, 20]	P: chickweed, herbicidal effect grade ([14]; 320 g/ha)	N: redroot pigweed, herbicidal effect grade [15, 20]	herbicidal effect rating, B: Japanese bulrush ([16]; AAH 320 g/ha)	Herbicidal effect, B: Japanese bulrush [17, 20]	other results
CCCC(=O)Oc1c(C)nn(C)c(=O)c1-c1c(-c2ccccc2OC)sc2cc(C)ccc12 [3-050]	–	–	–	–	–	–	–	–	–	–	–	–	–	–	–	–	–	P: chickweed, herbicidal effect grade [1, 18]: 3 (Herbicidal rate of 40% or more and less than 70%); M: velvetleaf, herbicidal effect grade [2, 18]: 0 (Herbicidal rate of 5% or less (almost no effect)); herbicidal effect rating, C: oval-leafed pondweed ([3]; AAH 224 g/ha): 3 (Herbicidal rate of 40% or more and less than 70%); I: wild oat, herbicidal effect grade [4, 18]: 0 (Herbicidal rate of 5% or less (almost no effect)); herbicidal effect on rice flat sedge (E) ([5]; 224 g/ha): 3 (Herbicidal rate of 40% or more and less than 70%); H: barnyard grass, herbicidal effect grade ([6]; 224 g/ha): 4 (Herbicidal rate of 70% or more and less than 90%); J: blackgrass, herbicidal effect grade [7, 18]: 0 (Herbicidal rate of 5% or less (almost no effect)); F: southern crabgrass, herbicidal effect grade [8, 18]: 0 (Herbicidal rate of 5% or less (almost no effect)); herbicidal effect rating, A: late watergrass ([9]; AAH 224 g/ha): 0 (Herbicidal rate of 5% or less (almost no effect)); J: blackgrass, herbicidal effect grade ([10]; 224 g/ha): 4 (Herbicidal rate of 70% or more and less than 90%); N: redroot pigweed, herbicidal effect grade ([11]; 224 g/ha): 4 (Herbicidal rate of 70% or more and less than 90%); I: wild oat, herbicidal effect grade ([12]; 224 g/ha): 4 (Herbicidal rate of 70% or more and less than 90%); G: green foxtail, herbicidal effect grade [13, 18]: 0 (Herbicidal rate of 5% or less (almost no effect)); P: chickweed, herbicidal effect grade ([14]; 224 g/ha): 5 (Herbicidal rate of 90% or more (almost completely withered)); N: redroot pigweed, herbicidal effect grade [15, 18]: 0 (Herbicidal rate of 5% or less (almost no effect)); herbicidal effect rating, B: Japanese bulrush ([16]; AAH 224 g/ha): 1 (Herbicidal rate of 5% or more and less than 20%); Herbicidal effect, B: Japanese bulrush [17, 18]: 0 (Herbicidal rate of 5% or less (almost no effect))
CCCC(=O)Oc1c(C)nn(C)c(=O)c1-c1c(-c2ccccc2OCC)sc2cc(C)ccc12 [3-054]	–	–	–	–	–	–	–	–	–	–	–	–	–	–	–	–	–	P: chickweed, herbicidal effect grade [1, 19]: 3 (Herbicidal rate of 40% or more and less than 70%); M: velvetleaf, herbicidal effect grade [2, 19]: 0 (Herbicidal rate of 5% or less (almost no effect)); herbicidal effect rating, C: oval-leafed pondweed ([3]; AAH 304 g/ha): 3 (Herbicidal rate of 40% or more and less than 70%); I: wild oat, herbicidal effect grade [4, 19]: 1 (Herbicidal rate of 5% or more and less than 20%); herbicidal effect on rice flat sedge (E) ([5]; 304 g/ha): 5 (Herbicidal rate of 90% or more (almost completely withered)); H: barnyard grass, herbicidal effect grade ([6]; 304 g/ha): 4 (Herbicidal rate of 70% or more and less than 90%); J: blackgrass, herbicidal effect grade [7, 19]: 3 (Herbicidal rate of 40% or more and less than 70%); F: southern crabgrass, herbicidal effect grade [8, 19]: 4 (Herbicidal rate of 70% or more and less than 90%); herbicidal effect rating, A: late watergrass ([9]; AAH 304 g/ha): 2 (Herbicidal rate of 20% or more and less than 40%); J: blackgrass, herbicidal effect grade ([10]; 304 g/ha): 4 (Herbicidal rate of 70% or more and less than 90%); N: redroot pigweed, herbicidal effect grade ([11]; 304 g/ha): 5 (Herbicidal rate of 90% or more (almost completely withered)); I: wild oat, herbicidal effect grade ([12]; 304 g/ha): 5 (Herbicidal rate of 90% or more (almost completely withered)); G: green foxtail, herbicidal effect grade [13, 19]: 3 (Herbicidal rate of 40% or more and less than 70%); P: chickweed, herbicidal effect grade ([14]; 304 g/ha): 5 (Herbicidal rate of 90% or more (almost completely withered)); N: redroot pigweed, herbicidal effect grade [15, 19]: 1 (Herbicidal rate of 5% or more and less than 20%); herbicidal effect rating, B: Japanese bulrush ([16]; AAH 304 g/ha): 3 (Herbicidal rate of 40% or more and less than 70%); Herbicidal effect, B: Japanese bulrush [17, 19]: 5 (Herbicidal rate of 90% or more (almost completely withered))
COc1cc(F)ccc1-c1sc2cc(C)ccc2c1-c1c(O)c(C)nn(C)c1=O [3-055]	4 (Herbicidal rate of 70% or more and less than 90%)	0 (Herbicidal rate of 5% or less (almost no effect))	3 (Herbicidal rate of 40% or more and less than 70%)	3 (Herbicidal rate of 40% or more and less than 70%)	5 (Herbicidal rate of 90% or more (almost completely withered))	4 (Herbicidal rate of 70% or more and less than 90%)	2 (Herbicidal rate of 20% or more and less than 40%)	3 (Herbicidal rate of 40% or more and less than 70%)	1 (Herbicidal rate of 5% or more and less than 20%)	5 (Herbicidal rate of 90% or more (almost completely withered))	5 (Herbicidal rate of 90% or more (almost completely withered))	5 (Herbicidal rate of 90% or more (almost completely withered))	0 (Herbicidal rate of 5% or less (almost no effect))	5 (Herbicidal rate of 90% or more (almost completely withered))	0 (Herbicidal rate of 5% or less (almost no effect))	1 (Herbicidal rate of 5% or more and less than 20%)	4 (Herbicidal rate of 70% or more and less than 90%)	–
CCCC(=O)Oc1c(C)nn(C)c(=O)c1-c1c(-c2ccccc2OCC)sc2cc(OC)ccc12 [3-071]	5 (Herbicidal rate of 90% or more (almost completely withered))	1 (Herbicidal rate of 5% or more and less than 20%)	5 (Herbicidal rate of 90% or more (almost completely withered))	3 (Herbicidal rate of 40% or more and less than 70%)	5 (Herbicidal rate of 90% or more (almost completely withered))	5 (Herbicidal rate of 90% or more (almost completely withered))	4 (Herbicidal rate of 70% or more and less than 90%)	4 (Herbicidal rate of 70% or more and less than 90%)	5 (Herbicidal rate of 90% or more (almost completely withered))	5 (Herbicidal rate of 90% or more (almost completely withered))	5 (Herbicidal rate of 90% or more (almost completely withered))	5 (Herbicidal rate of 90% or more (almost completely withered))	4 (Herbicidal rate of 70% or more and less than 90%)	5 (Herbicidal rate of 90% or more (almost completely withered))	4 (Herbicidal rate of 70% or more and less than 90%)	5 (Herbicidal rate of 90% or more (almost completely withered))	5 (Herbicidal rate of 90% or more (almost completely withered))	–
